Measured values as given in US12011444B2, “N-substituted indole derivatives as PGE2 receptor modulators” (Idorsia Pharmaceuticals Ltd, priority 2015, dated 2024).

How the values were obtained:
PTGER2 (EP2) = PTGER2 (EP2) (Homo sapiens (Human), UniProt P43116); assay: hEP2 b-arrestin assay (PathHunter HEK 293 PTGER2 b-arrestin cells); format: cell-based; settings: hEP2 b-arrestin assay (values without asterisk)
Outline: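 HEK293 cells expressing ProLink-tagged EP2 and EA-fused β-arrestin 2 (enzyme fragment complementation) were seeded 24 h, pre-incubated with compound 15 min at 37 °C, then stimulated with 5 μM PGE2 (final) for 120 min.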

PTRGER4 (EP4) = PTRGER4 (EP4) (Homo sapiens (Human), UniProt P35408); assay: hEP4 b-arrestin assay (PathHunter HEK 293 PTGER4 b-arrestin cells); format: cell-based; settings: hEP4 b-arrestin assay (values without asterisk)
Outline: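 Stably transfected HEK293 cells carrying EP4–ProLink and β-arrestin 2–EA (β-gal fragment complementation), pre-incubated with compound 15 min at 37 °C, then stimulated with PGE2 (20 nM final) for 120 min at 37 °C. Chemiluminescence read after 1 h detection reagent at room temperature; activity per concentration expressed as percent of DMSO control.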

Sequence of PTGER2 (EP2) (P43116 whole entry, the tested form may be a part): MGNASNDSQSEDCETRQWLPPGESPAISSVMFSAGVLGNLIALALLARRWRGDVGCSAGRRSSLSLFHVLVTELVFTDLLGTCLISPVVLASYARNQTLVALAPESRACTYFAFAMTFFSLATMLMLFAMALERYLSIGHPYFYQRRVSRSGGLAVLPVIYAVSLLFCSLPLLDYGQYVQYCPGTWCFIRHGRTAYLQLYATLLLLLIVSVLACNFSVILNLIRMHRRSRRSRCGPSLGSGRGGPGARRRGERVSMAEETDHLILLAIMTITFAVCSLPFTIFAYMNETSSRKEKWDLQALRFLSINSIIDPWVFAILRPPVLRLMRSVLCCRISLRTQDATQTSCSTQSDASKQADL
Sequence of PTRGER4 (EP4) (P35408 whole entry, looked up, the tested form may be a part): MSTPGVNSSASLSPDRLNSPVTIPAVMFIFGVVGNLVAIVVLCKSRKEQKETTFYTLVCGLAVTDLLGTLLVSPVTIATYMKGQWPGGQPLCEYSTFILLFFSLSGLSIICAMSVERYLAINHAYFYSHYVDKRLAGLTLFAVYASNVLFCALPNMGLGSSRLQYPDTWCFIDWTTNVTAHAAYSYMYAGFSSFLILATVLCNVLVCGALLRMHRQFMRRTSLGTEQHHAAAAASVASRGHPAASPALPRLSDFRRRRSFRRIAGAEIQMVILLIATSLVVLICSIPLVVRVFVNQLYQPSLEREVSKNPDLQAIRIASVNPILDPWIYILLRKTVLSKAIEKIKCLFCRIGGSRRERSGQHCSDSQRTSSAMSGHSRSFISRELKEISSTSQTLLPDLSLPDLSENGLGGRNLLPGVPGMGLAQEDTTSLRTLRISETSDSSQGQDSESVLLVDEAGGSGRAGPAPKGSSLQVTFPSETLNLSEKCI

| Compound | IC50 (PTGER2 (EP2)) | IC50 (PTRGER4 (EP4)) |
| --- | --- | --- |
| COc1ccc(F)c2c1cc(C#N)n2CCNc1cc(-c2ccc3[nH]cnc3c2)ncn1 [Example 984, 1-{2-[6-(1H-Benzoimidazol-5-yl)-pyrimidin-4-ylamino]-ethyl}-7-fluoro-4-methoxy-1H-indole-2-carbonitrile] | 8 nM | 28 nM |
| COc1ccc(F)c2c1cc(C#N)n2CCNc1cc(-c2ccnc(C3CC3)c2)ncn1 [Example 986, 1-{2-[6-(2-Cyclopropyl-pyridin-4-yl)-pyrimidin-4-ylamino]-ethyl}-7-fluoro-4-methoxy-1H-indole-2-carbonitrile] | 9 nM | 66 nM |
| COc1ccc(F)c2c1cc(C#N)n2CCNc1cc(-c2ccnc(N)c2)ncn1 [Example 988, 1-{2-[6-(2-Amino-pyridin-4-yl)-pyrimidin-4-ylamino]-ethyl}-7-fluoro-4-methoxy-1H-indole-2-carbonitrile] | 51 nM | 197 nM |
| COc1ccc(F)c2c1cc(C#N)n2CCNc1cc(-c2ccc(B(O)O)cc2)ncn1 [Example 989, (4-(6-((2-(2-Cyano-7-fluoro-4-methoxy-1H-indol-1-yl)ethyl)amino)pyrimidin-4-yl)phenyl)boronic acid] | 67 nM | 62 nM |
| COc1ccc(F)c2c1cc(C#N)n2CCNc1cc(-c2c(C)noc2C)ncn1 [Example 993, 1-{2-[6-(3,5-Dimethyl-isoxazol-4-yl)-pyrimidin-4-ylamino]-ethyl}-7-fluoro-4-methoxy-1H-indole-2-carbonitrile] | 80 nM | 344 nM |
| COc1ccc(F)c2c1cc(C#N)n2CCNc1cc(-c2ccc3[nH]ccc3c2)ncn1 [Example 994, 7-Fluoro-1-{2-[6-(1H-indol-5-yl)-pyrimidin-4-ylamino]-ethyl}-4-methoxy-1H-indole-2-carbonitrile] | 7 nM | 6 nM |
| COc1ccc(F)c2c1cc(C#N)n2CCNc1cc(-c2ccc3nccn3c2)ncn1 [Example 995, 7-Fluoro-1-[2-(6-imidazo[1,2-a]pyridin-6-yl-pyrimidin-4-ylamino)-ethyl]-4-methoxy-1H-indole-2-carbonitrile] | 13 nM | 52 nM |
| COc1ccc(F)c2c1cc(C#N)n2CCNc1cc(-c2c(C)nn(C)c2C)ncn1 [Example 998, 7-Fluoro-4-methoxy-1-{2-[6-(1,3,5-trimethyl-1H-pyrazol-4-yl)-pyrimidin-4-ylamino]-ethyl}-1H-indole-2-carbonitrile] | 48 nM | 686 nM |
| COc1ccc(F)c2c1cc(C#N)n2CCNc1cc(-c2ccc3[nH]c(=O)[nH]c3c2)ncn1 [Example 1000, 7-Fluoro-4-methoxy-1-{2-[6-(2-oxo-2,3-dihydro-1H-benzoimidazol-5-yl)-pyrimidin-4-ylamino]-ethyl}-1H-indole-2-carbonitrile] | 35 nM | 79 nM |
| CCOc1cc(C(=O)O)cc(-c2cc(NCCn3c(C#N)cc4c(OC)ccc(F)c43)ncn2)c1 [Example 1002, 3-{6-[2-(2-Cyano-7-fluoro-4-methoxy-indol-1-yl)-ethylamino]-pyrimidin-4-yl}-5-ethoxy-benzoic acid] | 20 nM | 31 nM |
| COc1cc(C(=O)O)cc(-c2cc(NCCn3c(C#N)cc4c(OC)ccc(F)c43)ncn2)c1 [Example 1005, 3-{6-[2-(2-Cyano-7-fluoro-4-methoxy-indol-1-yl)-ethylamino]-pyrimidin-4-yl}-5-methoxy-benzoic acid] | 18 nM | 55 nM |
| COc1ccc(F)c2c1cc(C#N)n2CCNc1cc(-c2ccnc(OC(F)F)c2)ncn1 [Example 1006, 1-{2-[6-(2-Difluoromethoxy-pyridin-4-yl)-pyrimidin-4-ylamino]-ethyl}-7-fluoro-4-methoxy-1H-indole-2-carbonitrile] | 131 nM | 450 nM |

Further compounds by falling IC50 (PTGER2 (EP2)), results first:

| IC50 (PTGER2 (EP2)) | IC50 (PTRGER4 (EP4)) | Compound |
| --- | --- | --- |
| 142 nM | 540 nM | COc1ncc(-c2cc(NCCn3c(C#N)cc4c(OC)ccc(F)c43)ncn2)cn1 [Example 991, 7-Fluoro-4-methoxy-1-[2-(2′-methoxy-[4,5]bipyrimidinyl-6-ylamino)-ethyl]-1H-indole-2-carbonitrile] |
| 117 nM | 144 nM | COc1ccc(F)c2c1cc(C#N)n2CCNc1cc(-c2cccc(CC(=O)O)c2)ncn1 [Example 1004, (3-{6-[2-(2-Cyano-7-fluoro-4-methoxy-indol-1-yl)-ethylamino]-pyrimidin-4-yl}-phenyl)-acetic acid] |
| 58 nM | 143 nM | COc1ccc(F)c2c1cc(C#N)n2CCNc1cc(-c2ccnc(N3CCCC3)c2)ncn1 [Example 997, 7-Fluoro-4-methoxy-1-{2-[6-(2-pyrrolidin-1-yl-pyridin-4-yl)-pyrimidin-4-ylamino]-ethyl}-1H-indole-2-carbonitrile] |
| 55 nM | 131 nM | COc1ccc(F)c2c1cc(C#N)n2CCNc1cc(-c2ccnc(N3CCOCC3)c2)ncn1 [Example 1003, 7-Fluoro-4-methoxy-1-{2-[6-(2-morpholin-4-yl-pyridin-4-yl)-pyrimidin-4-ylamino]-ethyl}-1H-indole-2-carbonitrile] |
| 44 nM | 67 nM | COc1ccc(F)c2c1cc(C#N)n2CCNc1cc(-c2ccc3[nH]c(=O)[nH]c3c2)ncn1 [Example 987, 7-Fluoro-1-{2-[6-(2-oxo-2,3-dihydro-1H-benzo[d]imidazol-5-yl)-pyrimidin-4-ylamino]-ethyl}-4-methoxy-1H-indole-2-carbonitrile] |
| 39 nM | 99 nM | COCCNC(=O)c1ccc(-c2cc(NCCn3c(C#N)cc4c(OC)ccc(F)c43)ncn2)cc1 [Example 996, 4-{6-[2-(2-Cyano-7-fluoro-4-methoxy-indol-1-yl)-ethylamino]-pyrimidin-4-yl}-N-(2-methoxy-ethyl)-benzamide] |
| 30 nM | 23 nM | COC(=O)c1ccc(-c2cc(NCCn3c(C#N)cc4c(OC)ccc(F)c43)ncn2)cc1F [Example 999, 4-{6-[2-(2-Cyano-7-fluoro-4-methoxy-indol-1-yl)-ethylamino]-pyrimidin-4-yl}-2-fluoro-benzoic acid methyl ester] |
| 27 nM | 35 nM | CCOc1cc(-c2cc(NCCn3c(C#N)cc4c(OC)ccc(F)c43)ncn2)ccc1C=O [Example 992, 1-{2-[6-(3-Ethoxy-4-formyl-phenyl)-pyrimidin-4-ylamino]-ethyl}-7-fluoro-4-methoxy-1H-indole-2-carbonitrile] |
| 25 nM | 14 nM | COc1ccc(F)c2c1cc(C#N)n2CCNc1cc(-c2ccc3nn[nH]c3c2)ncn1 [Example 985, 1-{2-[6-(3H-Benzotriazol-5-yl)-pyrimidin-4-ylamino]-ethyl}-7-fluoro-4-methoxy-1H-indole-2-carbonitrile] |
| 6 nM | 7 nM | COc1ccc(F)c2c1cc(C#N)n2CCNc1cc(-c2ccc(O)c(C(F)(F)F)c2)ncn1 [Example 1001, 7-Fluoro-1-{2-[6-(4-hydroxy-3-trifluoromethyl-phenyl)-pyrimidin-4-ylamino]-ethyl}-4-methoxy-1H-indole-2-carbonitrile] |
| 3 nM | 19 nM | COc1ccc(F)c2c1cc(C#N)n2CCNc1cc(-c2ccc3c(c2)CCNC3=O)ncn1 [Example 990, 7-Fluoro-4-methoxy-1-{2-[6-(1-oxo-1,2,3,4-tetrahydro-isoquinolin-6-yl)-pyrimidin-4-ylamino]-ethyl}-1H-indole-2-carbonitrile] |
